Measurements: PubChem BioAssay AID2060505 (Molecular Pharmacology Branch, DTP, NCI, 2025)

Tested on: 633275-114-R-J1-PDC complex spheroids, viability
Assay: Anticancer human tumor 633275-114-R-J1-PDC patient-derived endometrial adenocarcinoma cell line growth inhibition [GQUAD]
Settings: for IC50: curve of first compound; for viability, T/C: stronger effect = lower value
Procedure, shortened: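 Multi-cell-type spheroids of tumor cells with HUVEC and mesenchymal stem cells, treated with drug combinations. Concentrations descend in half-log steps from near clinical Cmax, or from 10 microM where Cmax is unknown; viability read-out.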

[1] = second compound 0.0316 µM, first compound 0.0316 µM
[2] = second compound 0.0316 µM, first compound 0.1 µM
[3] = second compound 0.0316 µM, first compound 0.316 µM
[4] = second compound 0.0316 µM, first compound 1 µM
[5] = second compound 0.0316 µM, first compound 3.16 µM
[6] = second compound 0.0316 µM, first compound 10 µM
[7] = second compound 0.1 µM, first compound 0.0316 µM
[8] = second compound 0.1 µM, first compound 0.1 µM
[9] = second compound 0.1 µM, first compound 0.316 µM
[10] = second compound 0.1 µM, first compound 1 µM
[11] = second compound 0.1 µM, first compound 3.16 µM
[12] = second compound 0.1 µM, first compound 10 µM
[13] = second compound 0.316 µM, first compound 0.0316 µM
[14] = second compound 0.316 µM, first compound 0.1 µM
[15] = second compound 0.316 µM, first compound 0.316 µM
[16] = second compound 0.316 µM, first compound 1 µM
[17] = second compound 0.316 µM, first compound 3.16 µM
[18] = second compound 0.316 µM, first compound 10 µM
[19] = second compound 1 µM, first compound 0.0316 µM
[20] = second compound 1 µM, first compound 0.1 µM
[21] = second compound 1 µM, first compound 0.316 µM
[22] = second compound 1 µM, first compound 1 µM
[23] = second compound 1 µM, first compound 3.16 µM
[24] = second compound 1 µM, first compound 10 µM
[25] = second compound 3.16 µM, first compound 0.0316 µM
[26] = second compound 3.16 µM, first compound 0.1 µM
[27] = second compound 3.16 µM, first compound 0.316 µM
[28] = second compound 3.16 µM, first compound 1 µM
[29] = second compound 3.16 µM, first compound 3.16 µM
[30] = second compound 3.16 µM, first compound 10 µM
[31] = second compound 10 µM, first compound 0.0316 µM
[32] = second compound 10 µM, first compound 0.1 µM
[33] = second compound 10 µM, first compound 0.316 µM
[34] = second compound 10 µM, first compound 1 µM
[35] = second compound 10 µM, first compound 3.16 µM
[36] = second compound 10 µM, first compound 10 µM
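Also: spheroids exposed to the agents for seven days.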
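For viability, T/C in this document: percent of DMSO vehicle control viability which is 100%.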

Structure (SMILES): COc1cc(C2c3cc4c(cc3C(OC3OC5COC(C)OC5C(O)C3O)C3COC(=O)C23)OCO4)cc(OC)c1O (stereo not drawn) + Cc1[nH]c2ccc(F)cc2c1-c1nc2c3cccnc3c3ncccc3c2[nH]1
- IC50 (second compound 0.0316 µM): 446 nM
- IC50 (second compound 0.1 µM): 410 nM
- IC50 (second compound 0.316 µM): 429 nM
- IC50 (second compound 1 µM): 358 nM
- IC50 (second compound 3.16 µM): 158 nM
- IC50 (second compound 10 µM): 169 nM
- viability, T/C [1]: 88.3%
- viability, T/C [2]: 67.3%
- viability, T/C [3]: 52.6%
- viability, T/C [4]: 41.9%
- viability, T/C [5]: 40%
- viability, T/C [6]: 30.4%
- viability, T/C [7]: 87.8%
- viability, T/C [8]: 72.5%
- viability, T/C [9]: 50.1%
- viability, T/C [10]: 41.7%
- viability, T/C [11]: 39.2%
- viability, T/C [12]: 30.7%
- viability, T/C [13]: 85.5%
- viability, T/C [14]: 69.5%
- viability, T/C [15]: 51%
- viability, T/C [16]: 42.2%
- viability, T/C [17]: 38.3%
- viability, T/C [18]: 31.3%
- viability, T/C [19]: 86.5%
- viability, T/C [20]: 65.2%
- viability, T/C [21]: 51.6%
- viability, T/C [22]: 40.8%
- viability, T/C [23]: 36.1%
- viability, T/C [24]: 30.8%
- viability, T/C [25]: 64.2%
- viability, T/C [26]: 56.1%
- viability, T/C [27]: 41.7%
- viability, T/C [28]: 36.6%
- viability, T/C [29]: 37.3%
- viability, T/C [30]: 27.8%
- viability, T/C [31]: 65.5%
- viability, T/C [32]: 56.4%
- viability, T/C [33]: 41.8%
- viability, T/C [34]: 37.4%
- viability, T/C [35]: 33.4%
- viability, T/C [36]: 28.4%

Structure (SMILES): COc1cccc2c1C(=O)c1c(O)c3c(c(O)c1C2=O)CC(O)(C(=O)CO)CC3OC1CC(N)C(O)C(C)O1 (stereo not drawn) + Cc1[nH]c2ccc(F)cc2c1-c1nc2c3cccnc3c3ncccc3c2[nH]1
- IC50 (second compound 0.0316 µM): 89.7 nM
- IC50 (second compound 0.1 µM): 94.6 nM
- IC50 (second compound 0.316 µM): 82.3 nM
- IC50 (second compound 1 µM): 73 nM
- IC50 (second compound 3.16 µM): 45.4 nM
- IC50 (second compound 10 µM): 39.7 nM
- viability, T/C [1]: 64.4%
- viability, T/C [2]: 47.5%
- viability, T/C [3]: 32%
- viability, T/C [4]: 21.5%
- viability, T/C [5]: 2.36%
- viability, T/C [6]: 1.69%
- viability, T/C [7]: 65.3%
- viability, T/C [8]: 46.2%
- viability, T/C [9]: 35.3%
- viability, T/C [10]: 20.6%
- viability, T/C [11]: 1.91%
- viability, T/C [12]: 1.66%
- viability, T/C [13]: 62.5%
- viability, T/C [14]: 46%
- viability, T/C [15]: 32.3%
- viability, T/C [16]: 20.3%
- viability, T/C [17]: 2.16%
- viability, T/C [18]: 1.4%
- viability, T/C [19]: 62.2%
- viability, T/C [20]: 44%
- viability, T/C [21]: 30.6%
- viability, T/C [22]: 20.6%
- viability, T/C [23]: 1.92%
- viability, T/C [24]: 1.57%
- viability, T/C [25]: 54.4%
- viability, T/C [26]: 40.2%
- viability, T/C [27]: 30.9%
- viability, T/C [28]: 18.6%
- viability, T/C [29]: 2.97%
- viability, T/C [30]: 1.41%
- viability, T/C [31]: 52.9%
- viability, T/C [32]: 39.7%
- viability, T/C [33]: 30.1%
- viability, T/C [34]: 19.4%
- viability, T/C [35]: 2.39%
- viability, T/C [36]: 1.46%

Structure (SMILES): Cc1cccc(N(C)C(=O)C2C(O)CCN2c2nc(C)cc(C(F)(F)F)c2C#N)c1 (stereo not drawn) + Cc1[nH]c2ccc(F)cc2c1-c1nc2c3cccnc3c3ncccc3c2[nH]1
- IC50 (second compound 0.0316 µM): > 10000 nM
- IC50 (second compound 0.1 µM): > 10000 nM
- IC50 (second compound 0.316 µM): > 10000 nM
- IC50 (second compound 1 µM): > 10000 nM
- IC50 (second compound 3.16 µM): > 10000 nM
- IC50 (second compound 10 µM): > 10000 nM
- viability, T/C [1]: 108%
- viability, T/C [2]: 97.1%
- viability, T/C [3]: 103%
- viability, T/C [4]: 94%
- viability, T/C [5]: 99.8%
- viability, T/C [6]: 99.4%
- viability, T/C [7]: 99.2%
- viability, T/C [8]: 99.9%
- viability, T/C [9]: 97.4%
- viability, T/C [10]: 94.3%
- viability, T/C [11]: 91.6%
- viability, T/C [12]: 101%
- viability, T/C [13]: 91.1%
- viability, T/C [14]: 101%
- viability, T/C [15]: 99.5%
- viability, T/C [16]: 98.9%
- viability, T/C [17]: 98%
- viability, T/C [18]: 99.2%
- viability, T/C [19]: 86.4%
- viability, T/C [20]: 86.2%
- viability, T/C [21]: 90.1%
- viability, T/C [22]: 90.4%
- viability, T/C [23]: 91.7%
- viability, T/C [24]: 92.9%
- viability, T/C [25]: 73.8%
- viability, T/C [26]: 71.6%
- viability, T/C [27]: 76.7%
- viability, T/C [28]: 74.4%
- viability, T/C [29]: 79.3%
- viability, T/C [30]: 75.5%
- viability, T/C [31]: 69.6%
- viability, T/C [32]: 77.7%
- viability, T/C [33]: 79.1%
- viability, T/C [34]: 72.6%
- viability, T/C [35]: 69.8%
- viability, T/C [36]: 71.2%

Structure (SMILES): Cn1ncnc1[C@H]1c2n[nH]c(=O)c3cc(F)cc(c23)N[C@@H]1c1ccc(F)cc1 + Cc1[nH]c2ccc(F)cc2c1-c1nc2c3cccnc3c3ncccc3c2[nH]1
- IC50 (second compound 0.0316 µM): > 316 nM
- IC50 (second compound 0.1 µM): > 316 nM
- IC50 (second compound 0.316 µM): > 316 nM
- IC50 (second compound 1 µM): > 316 nM
- IC50 (second compound 3.16 µM): 257 nM
- IC50 (second compound 10 µM): > 316 nM
- viability, T/C (second compound 0.0316 µM, first compound 0.000999 µM): 96.6%
- viability, T/C (second compound 0.0316 µM, first compound 0.00316 µM): 83.2%
- viability, T/C (second compound 0.0316 µM, first compound 0.00999 µM): 83.7%
- viability, T/C [1]: 75.4%
- viability, T/C (second compound 0.0316 µM, first compound 0.0999 µM): 66.8%
- viability, T/C [3]: 64.4%
- viability, T/C (second compound 0.1 µM, first compound 0.000999 µM): 93%
- viability, T/C (second compound 0.1 µM, first compound 0.00316 µM): 93%
- viability, T/C (second compound 0.1 µM, first compound 0.00999 µM): 91.7%
- viability, T/C [7]: 75.5%
- viability, T/C (second compound 0.1 µM, first compound 0.0999 µM): 67.1%
- viability, T/C [9]: 57.6%
- viability, T/C (second compound 0.316 µM, first compound 0.000999 µM): 92.7%
- viability, T/C (second compound 0.316 µM, first compound 0.00316 µM): 92%
- viability, T/C (second compound 0.316 µM, first compound 0.00999 µM): 82.6%
- viability, T/C [13]: 82.4%
- viability, T/C (second compound 0.316 µM, first compound 0.0999 µM): 69.1%
- viability, T/C [15]: 57.2%
- viability, T/C (second compound 1 µM, first compound 0.000999 µM): 91%
- viability, T/C (second compound 1 µM, first compound 0.00316 µM): 85.4%
- viability, T/C (second compound 1 µM, first compound 0.00999 µM): 79.1%
- viability, T/C [19]: 72.6%
- viability, T/C (second compound 1 µM, first compound 0.0999 µM): 66.6%
- viability, T/C [21]: 54.2%
- viability, T/C (second compound 3.16 µM, first compound 0.000999 µM): 74%
- viability, T/C (second compound 3.16 µM, first compound 0.00316 µM): 66.6%
- viability, T/C (second compound 3.16 µM, first compound 0.00999 µM): 65.1%
- viability, T/C [25]: 61.2%
- viability, T/C (second compound 3.16 µM, first compound 0.0999 µM): 52.3%
- viability, T/C [27]: 49.4%
- viability, T/C (second compound 10 µM, first compound 0.000999 µM): 73.7%
- viability, T/C (second compound 10 µM, first compound 0.00316 µM): 77.7%
- viability, T/C (second compound 10 µM, first compound 0.00999 µM): 66.5%
- viability, T/C [31]: 60.2%
- viability, T/C (second compound 10 µM, first compound 0.0999 µM): 55.9%
- viability, T/C [33]: 51.8%
